Key:
[1] = system: BRCA1 mRNA expression in MDA-MB-231 cells; test: qRT-PCR assay: BRCA1 mRNA expression in MDA-MB-231; assay type: cell-based, human; conditions: Homo sapiens, MDA-MB-231, Inhibition of BRCA1 mRNA expression in MDA-MB-231 cells; median; read-out: RTqPCR-MDA-MB-231, IC50, BRCA1 (median)
How it was run: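 Cells were seeded at 200,000 cells/well, left 24 h, then exposed continuously to test substances for 24 h. Total RNA (600 ng) was reverse-transcribed to cDNA and amplified by qPCR, and transcript levels were normalised to GAPDH housekeeping expression.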

[2] = system: MDA-MB-231, human breast cancer cells; test: Proliferation assay MDA-MB-231 (crystal violet, 4 days); assay type: cell-based; conditions: Homo sapiens, MDA-MB-231, 96 h, MDA-MB-231 cells, median, read-out: Prolif-MDA MB-231, IC50-[mol/l] (median)
How it was run: (§1)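 Cells seeded at 4,000/well in medium with 10% FCS; after 24 h, compounds added at 0.01-10 µmol/L (0.1% DMSO) for 4 days. Glutaraldehyde-fixed, crystal violet-stained, absorbance at 595 nm normalized to zero-point plate (0%) and untreated cells (100%); IC50 by 4-parameter fit.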

[3] = system: CAL-120, human breast adenocarcinoma cells; test: Proliferation assay CAL-120 (crystal violet, 4 days); assay type: cell-based; conditions: Homo sapiens, CAL-120, 96 h, CAL-120 cells, median, read-out: Prolif-CAL-120, IC50-[mol/l] (median)
How it was run: as §1

Row | Structure (SMILES) | IC50 [1] | IC50 [2] | IC50 [3]
1 | Cc1cc2nc(CNc3nc(N4CC5CCC(C4)N5)nc4c(C5CC5)cnn34)[nH]c2cc1C [Example 326, 8-cyclopropyl-2-(3,8-diazabicyclo[3.2.1]octan-3-yl)-N-[(5,6-dimethyl-1H-benzimidazol-2-yl)methyl]pyrazolo[1,5-a][1,5]triazin-4-amine] | 1.63 nM | 1.57 nM | 1.25 nM
2 | FC(F)(F)Oc1ccc2[nH]c(CNc3nc(N4C[C@H]5CC[C@@H](C4)N5)nc4c(Br)cnn34)nc2c1 [Example 382, 8-bromo-2-[(1R,5S)-3,8-diazabicyclo[3.2.1]octan-3-yl]-N-{[5-(trifluoromethoxy)-1H-benzimidazol-2-yl]methyl}pyrazolo[1,5-a][1,3,5]triazin-4-amine] | 28.8 nM | 29.3 nM | 12.4 nM
3 | Fc1cccc2[nH]c(CNc3nc(N4CC5CCC(C4)N5)nc4c(Cl)cnn34)nc12 [Example 363, 8-chloro-2-(3,8-diazabicyclo[3.2.1]octan-3-yl)-N-[(4-fluoro-1H-benzimidazol-2-yl)methyl]pyrazolo[1,5-a][1,3,5]triazin-4-amine] | 22.5 nM | 34.6 nM | 7.26 nM
4 | FC(F)(F)c1ccc2[nH]c(CNc3nc(N4CC5CCC(C4)N5)nc4c(Br)cnn34)nc2c1 [Example 354, 8-bromo-2-(3,8-diazabicyclo[3.2.1]octan-3-yl)-N-{[5-(trifluoromethyl)-1H-benzimidazol-2-yl]methyl}pyrazolo[1,5-a][1,3,5]triazin-4-amine] | < 100 nM | 3.05 nM | 2.8 nM
5 | Fc1ccc(-c2nnc(CNc3nc(N4CCOCC4)nc4c(Br)cnn34)[nH]2)cc1 [Example 29, 8-bromo-N-{[5-(4-fluorophenyl)-4H-1,2,4-triazol-3-yl]methyl}-2-(morpholin-4-yl)pyrazolo[1,5-a][1,3,5]triazin-4-amine] | 21.2 nM | 89.9 nM | 170 nM
6 | Brc1cnn2c(NCc3nc4ccccc4[nH]3)nc(N3CC4CCC(C3)O4)nc12 [Example 351, N-[(1H-benzimidazol-2-yl)methyl]-8-bromo-2-(8-oxa-3-azabicyclo[3.2.1]octan-3-yl)pyrazolo[1,5-a][1,3,5]triazin-4-amine] | 61.6 nM | 93.9 nM | 38.4 nM
7 | Fc1cc2nc(CNc3nc(N4C[C@H]5CC[C@@H](C4)N5)nc4c(C5CC5)cnn34)[nH]c2cc1Cl [Example 328, N-[(6-chloro-5-fluoro-1H-benzimidazol-2-yl)methyl]-8-cyclopropyl-2-[(1R,5S)-3,8-diazabicyclo[3.2.1]octan-3-yl]pyrazolo[1,5-a][1,3,5]triazin-4-amine] | 2.78 nM | 1.04 nM | 0.901 nM
8 | Brc1cnn2c(NCc3nc4ccccc4[nH]3)nc(N3CCN4CCC3CC4)nc12 [Example 349, N-[(1H-benzimidazol-2-yl)methyl]-8-bromo-2-(1,4-diazabicyclo[3.2.2]nonan-4-yl)pyrazolo[1,5-a][1,3,5]triazin-4-amine] | 15.6 nM | 12.9 nM | 3.76 nM
9 | CN(CC(C)(C)O)c1nc(NCc2nc3c(F)cccc3[nH]2)n2ncc(Cl)c2n1 [Example 366, 1-[(8-chloro-4-{[(4-fluoro-1H-benzimidazol-2-yl)methyl]amino}pyrazolo[1,5-a][1,3,5]triazin-2-yl)(methyl)amino]-2-methylpropan-2-ol] | 27.1 nM | 57.1 nM | 31.3 nM

Other lines, results leading:

Row | IC50 [1] | IC50 [2] | IC50 [3] | Structure (SMILES)
10 | 5.63 nM | 7.18 nM | 3.59 nM | Fc1c(Cl)ccc2[nH]c(CNc3nc(N4CCOCC4)nc4c(C5CC5)cnn34)nc12 [Example 370, N-[(5-chloro-4-fluoro-1H-benzimidazol-2-yl)methyl]-8-cyclopropyl-2-(morpholin-4-yl)pyrazolo[1,5-a][1,3,5]triazin-4-amine]
11 | 5.56 nM | 4.57 nM | 4.95 nM | CN(CC(C)(C)O)c1nc(NCc2nc3c(F)c(Cl)ccc3[nH]2)n2ncc(C3CC3)c2n1 [Example 387, 1-[(4-{[(5-chloro-4-fluoro-1H-benzimidazol-2-yl)methyl]amino}-8-cyclopropylpyrazolo[1,5-a][1,3,5]triazin-2-yl)(methyl)amino]-2-methylpropan-2-ol]
12 | < 10 nM | 2.45 nM | 2.04 nM | CN1CCN(c2nc(NCc3nc4cc(F)c(Cl)cc4[nH]3)n3ncc(Br)c3n2)CC1 [Example 337, 8-bromo-N-[(6-chloro-5-fluoro-1H-benzimidazol-2-yl)methyl]-2-(4-methylpiperazin-1-yl)pyrazolo[1,5-a][1,3,5]triazin-4-amine]
13 | 1.3 nM | 3.1 nM | 1.93 nM | CN(CC(C)(C)O)c1nc(NCc2nc3cc(F)c(Cl)cc3[nH]2)n2ncc(Br)c2n1 [Example 338, 1-[(8-bromo-4-{[(6-chloro-5-fluoro-1H-benzimidazol-2-yl)methyl]amino}pyrazolo[1,5-a][1,3,5]triazin-2-yl)(methyl)amino]-2-methylpropan-2-ol]
14 | 5.13 nM | 3.73 nM | < 0.1 nM | Fc1cc2nc(CNc3nc(N4CCOCC4)nc4c(Br)cnn34)[nH]c2cc1F [Example 341, 8-bromo-N-[(5,6-difluoro-1H-benzimidazol-2-yl)methyl]-2-(morpholin-4-yl)pyrazolo[1,5-a][1,3,5]triazin-4-amine]
15 | 3.59 nM | 4.17 nM | 4.24 nM | Cc1cc2nc(CNc3nc(N4CCOCC4)nc4c(C5CC5)cnn34)[nH]c2cc1C [Example 320, 8-cyclopropyl-N-[(5,6-dimethyl-1H-benzimidazol-2-yl)methyl]-2-(morpholin-4-yl)pyrazolo[1,5-a][1,3,5]triazin-4-amine]
16 | 2.04 nM | 4.35 nM | 2.47 nM | CN(CC(C)(C)O)c1nc(NCc2nc3cc(F)c(F)cc3[nH]2)n2ncc(Br)c2n1 [Example 347]
17 | 9.16 nM | 20.2 nM | 12.5 nM | Fc1cc(F)cc(-c2nnc(CNc3nc(N4CCOCC4)nc4c(C(F)(F)F)cnn34)[nH]2)c1 [Example 386, N-{[5-(3,5-difluorophenyl)-4H-1,2,4-triazol-3-yl]methyl}-2-(morpholin-4-yl)-8-(trifluoromethyl)pyrazolo[1,5-a][1,3,5]triazin-4-amine]
18 | 6.05 nM | 10.4 nM | 4.33 nM | Fc1ccc2[nH]c(CNc3nc(N4CCOCC4)nc4c(Cl)cnn34)nc2c1F [Example 357]
19 | 1.27 nM | 3.33 nM | 1.93 nM | CN1CCN(c2nc(NCc3nc4c(F)c(Cl)ccc4[nH]3)n3ncc(Br)c3n2)CC1 [Example 373, 8-bromo-N-[(5-chloro-4-fluoro-1H-benzimidazol-2-yl)methyl]-2-(4-methylpiperazin-1-yl)pyrazolo[1,5-a][1,3,5]triazin-4-amine]
20 | 16.9 nM | 8.76 nM | 5.4 nM | CN(CC(C)(C)O)c1nc(NCc2nc3cc(C(F)(F)F)ccc3[nH]2)n2ncc(C3CC3)c2n1 [Example 323, 1-{[8-cyclopropyl-4-({[5-(trifluoromethyl)-1H-benzimidazol-2-yl]methyl}amino)pyrazolo[1,5-a][1,3,5]triazin-2-yl](methyl)amino}-2-methylpropan-2-ol]

From US20230117034A1, “PYRAZOLOTRIAZINES” (Bayer Aktiengesellschaft, priority 2019, published 2023)
